Results published in ChEMBL document CHEMBL5244275, “Geminal Diheteroatomic Motifs: Some Applications of Acetals, Ketals, and Their Sulfur and Nitrogen Homologues in Medicinal Chemistry and Drug Design” (J Med Chem, 2021).
Values after ≈ are worked out from the molar mass of the structure shown.

Tested on: not listed separately
Experiment: Stability of the compound in 0.01 N HCL at pH 2.0 assessed as half-life
Format: physicochemical
Conditions: not given

`C[C@H]1[C@@H](CCCC(=O)O)O[C@@H]2O[C@@]3(C)CC[C@H]4[C@H](C)CC[C@@H]1[C@@]24OO3` and `C[C@H]1[C@@H](CCCCC(=O)O)O[C@@H]2O[C@@]3(C)CC[C@H]4[C@H](C)CC[C@@H]1[C@@]24OO3` are the same in half-life: 165 h for the first, 165 h for the second.

`CCCC[C@H]1O[C@@H]2O[C@@]3(C)CC[C@H]4[C@H](C)CC[C@@H]([C@H]1C)[C@@]24OO3` and `C[C@H]1[C@@H](Cc2ccccc2)O[C@@H]2O[C@@]3(C)CC[C@H]4[C@H](C)CC[C@@H]1[C@@]24OO3` are the same in half-life: 165 h for the first, 165 h for the second.

Compared with `C[C@@H]1CC[C@H]2[C@@H](C)CO[C@@H]3O[C@@]4(C)CC[C@@H]1[C@]32OO4`, `C[C@H]1[C@@H](OCc2ccc(C(=O)O)cc2)O[C@@H]2O[C@@]3(C)CC[C@H]4[C@H](C)CC[C@@H]1[C@@]24OO3` is 15-fold lower in half-life: 165 h for the first, 11 h for the second.

Compared with `C[C@H]1[C@@H](O[C@H](CCC(=O)O)c2ccc(Cl)cc2)O[C@@H]2O[C@@]3(C)CC[C@H]4[C@H](C)CC[C@@H]1[C@@]24OO3`, `C[C@H]1[C@@H](CCc2ccc(C(=O)O)cc2)O[C@@H]2O[C@@]3(C)CC[C@H]4[C@H](C)CC[C@@H]1[C@@]24OO3` is 13-fold higher in half-life: 13 h for the first, 165 h for the second.

Tested on: not listed separately
Experiment: Oral bioavailability in human
Format: ADME, organism-based
Conditions: in vivo

First: Cn1c(=O)c2c(ncn2CC2OCCO2)n(C)c1=O [DOXOFYLLINE]
Second: Nc1nc(Cl)nc2c1ncn2[C@H]1C[C@H](O)[C@@H](CO)O1 [CLADRIBINE]
The bioavailability of the first is higher: 63% for the first, 40% for the second.

Compared with `Nc1ccn([C@H]2CC[C@@H](CO)O2)c(=O)n1` [ZALCITABINE], `Nc1ccn([C@@H]2O[C@H](CO)[C@@H](O)[C@@H]2O)c(=O)n1` [CYTARABINE] is lower in bioavailability: 80% for the first, 20% for the second.

Tested on: not listed separately
Experiment: Stability of the compound at pH 2 assessed as half-life
Format: physicochemical
Conditions: buffer

`CC1(C)OC[C@@H](C/C=C\CCCC(=O)O)[C@@H](c2ccccc2O)O1` and `Nc1nc2c(ncn2[C@H]2C=C[C@@H](CO)O2)c(=O)[nH]1` cannot be ordered by half-life: 56 s for the first, less than 120 s for the second.

Compound `O=C(O)CCC/C=C\C[C@@H]1CO[C@H](C(F)(F)F)O[C@@H]1c1ccccc1O` has a t1/2 of 7 yr.

Tested on: not listed separately
Experiment: Half-life in human plasma
Format: ADME
Conditions: not given

`Cn1c(=O)c2c(ncn2CC2OCCO2)n(C)c1=O` [DOXOFYLLINE] and `COC(=O)N[C@H](C(=O)N1CCC[C@H]1c1ncc(-c2ccc(-c3ccc(-c4cnc([C@@H]5CC6(CN5C(=O)[C@@H](NC(=O)OC)C(C)C)OCCO6)[nH]4)cc3)cc2)[nH]1)C(C)C` are within 1.5-fold of each other in half-life: 7 h for the first, 8 h for the second.

First: N=C(N)NCC1COC2(CCCCC2)O1 (stereo not drawn)
Second: N=C(N)NCCN1CCCCCCC1 [GUANETHIDINE]
The half-life of the first is 3-fold lower: 12 h for the first, 36 h for the second.

`COC(=O)N[C@H](C(=O)N1CCC[C@H]1c1nc(-c2ccc(-c3ccc(-c4c[nH]c([C@@H]5CCCN5C(=O)[C@@H](NC(=O)OC)C(C)C)n4)cc3)cc2)c[nH]1)C(C)C` showed a half-life of 12 h.

Tested on: not listed separately
Experiment: Oral bioavailability in mouse
Format: ADME, organism-based
Conditions: in vivo

First: C=C(C)CN1C[C@H](OC[C@@]23C[C@@H]4[C@H](C)CC[C@H]4[C@@]4(C=O)C[C@@H]2C=C(C(C)C)[C@@]34C(=O)O)O[C@H](C)[C@@H](OC)C1
Second: FC1CCN(CCc2ccc(C3CCC4(CC3)OOC3(OO4)C4CC5CC(C4)CC3C5)cc2)CC1 (stereo not drawn)
The bioavailability of the first is lower: 63% for the first, 82% for the second.

Tested on: not listed separately
Experiment: Stability of the compound assessed as compound hydrolysis by measuring rate constant by NMR spectroscopic analysis
Format: physicochemical
Conditions: not given

In the case of `C=CC1(C)CCC(C)(C)CC1`, the K is reported as 7.33 10^-4No_unit.
With `CC(Cl)C1(C)CCCCC1` (stereo not drawn) the K was 2.25 10^-6No_unit.
With `C=CC1(C)CCCCC1` the K was 9.9 10^-3No_unit.
With `C=CC1(C)OCCO1` the K was 8.8 10^-4No_unit.

`CC(Cl)C1(C)OCCO1` (stereo not drawn) and `CC(Cl)C1(C)CCC(C)(C)CC1` (stereo not drawn) are the same in K: 0 for the first, 0 for the second.

Tested on: PC-6
Experiment: Growth inhibition of human PC-6 cells
Format: functional
Conditions: not given

`CC(=O)O[C@@]12CO[C@@H]1CC[C@@]1(C)[C@@H]3O[C@H](CN(C)C)O[C@@H]3C3=C(C)[C@@H](OC(=O)[C@H](O)[C@@H](NC(=O)OC(C)(C)C)c4ncccc4F)C[C@@](O)([C@@H](OC(=O)c4ccccc4)[C@@H]12)C3(C)C` [TESETAXEL] and `CC(=O)O[C@@]12CO[C@@H]1CC[C@@]1(C)[C@@H]3O[C@H](CN4CCOCC4)O[C@@H]3C3=C(C)[C@@H](OC(=O)[C@H](O)[C@@H](NC(=O)OC(C)(C)C)c4ncccc4F)C[C@@](O)([C@@H](OC(=O)c4ccccc4)[C@@H]12)C3(C)C` are within 1.5-fold of each other in GI50: 0.38 ng/mL (≈ 0.431 nM) for the first, 0.29 ng/mL (≈ 0.314 nM) for the second.

Compared with `CC(=O)O[C@@]12CO[C@@H]1CC[C@@]1(C)[C@H]3OC(C)(C)O[C@@H]3C3=C(C)[C@@H](OC(=O)[C@H](O)[C@@H](NC(=O)OC(C)(C)C)c4ccccn4)C[C@@](O)([C@@H](OC(=O)c4ccccc4)[C@@H]12)C3(C)C`, `CC(=O)O[C@@]12CO[C@@H]1C[C@H](O)[C@@]1(C)C(=O)[C@H](O)C3=C(C)[C@@H](OC(=O)[C@H](O)[C@@H](NC(=O)OC(C)(C)C)c4ccccc4)C[C@@](O)([C@@H](OC(=O)c4ccccc4)[C@H]21)C3(C)C` [DOCETAXEL ANHYDROUS] is 4.5-fold higher in GI50: 0.33 ng/mL (≈ 0.395 nM) for the first, 1.48 ng/mL (≈ 1.83 nM) for the second.

In the case of `CC(=O)O[C@H]1C(=O)[C@@]2(C)[C@H]([C@H](OC(=O)c3ccccc3)[C@]3(O)C[C@H](OC(=O)[C@H](O)[C@@H](NC(=O)c4ccccc4)c4ccccc4)C(C)=C1C3(C)C)[C@]1(OC(C)=O)CO[C@@H]1C[C@@H]2O` [PACLITAXEL], the GI50 is reported as 1.27 ng/mL (≈ 1.49 nM).

Biological target: Substance-P receptor (Homo sapiens, UniProt P25103)
Experiment: Displacement of [125I]-labeled SP from human NK-1 receptor expressed in CHO cells
Format: cell-based
Conditions: not given

Sequence of Substance-P receptor (P25103 whole entry): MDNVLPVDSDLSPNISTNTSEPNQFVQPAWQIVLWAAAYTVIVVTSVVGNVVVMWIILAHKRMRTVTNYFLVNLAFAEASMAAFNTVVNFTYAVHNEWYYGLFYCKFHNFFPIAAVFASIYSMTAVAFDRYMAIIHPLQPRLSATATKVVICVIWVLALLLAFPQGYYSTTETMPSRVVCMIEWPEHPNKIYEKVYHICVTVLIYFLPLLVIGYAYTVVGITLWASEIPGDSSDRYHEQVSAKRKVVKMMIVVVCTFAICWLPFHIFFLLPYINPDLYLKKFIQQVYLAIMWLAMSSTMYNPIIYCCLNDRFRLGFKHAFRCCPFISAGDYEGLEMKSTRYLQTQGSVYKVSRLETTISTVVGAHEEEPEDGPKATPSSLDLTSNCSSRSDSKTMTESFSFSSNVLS

`CN(C)Cc1[nH]nnc1CN1CCO[C@@]2(CC[C@@H](c3ccccc3OC(F)(F)F)CO2)[C@@H]1c1ccc(F)cc1` and `CN(C)Cc1[nH]nnc1CN1CCO[C@@]2(CC[C@@H](c3ccccc3C(F)(F)F)CO2)[C@@H]1c1ccc(F)cc1` are within 1.5-fold of each other in IC50: 1.4 nM for the first, 1.1 nM for the second.

In the case of `COc1cccc(-n2nnnc2C(F)(F)F)c1[C@H]1CO[C@@]2(C1)OCCN[C@H]2c1ccc(F)cc1`, the IC50 is reported as 0.1 nM.

Tested on: not listed separately
Experiment: Growth inhibition of human PC-12 cells
Format: functional, PC12
Conditions: not given

Going from `CC(=O)O[C@@]12CO[C@@H]1CC[C@@]1(C)[C@@H]3O[C@H](CN(C)C)O[C@@H]3C3=C(C)[C@@H](OC(=O)[C@H](O)[C@@H](NC(=O)OC(C)(C)C)c4ncccc4F)C[C@@](O)([C@@H](OC(=O)c4ccccc4)[C@@H]12)C3(C)C` [TESETAXEL] to `CC(=O)O[C@@]12CO[C@@H]1CC[C@@]1(C)[C@@H]3O[C@H](CN4CCOCC4)O[C@@H]3C3=C(C)[C@@H](OC(=O)[C@H](O)[C@@H](NC(=O)OC(C)(C)C)c4ncccc4F)C[C@@](O)([C@@H](OC(=O)c4ccccc4)[C@@H]12)C3(C)C`, the GI50 falls from 0.62 ng/mL (≈ 0.703 nM) to 0.14 ng/mL (≈ 0.152 nM) (4.4-fold).

Going from `CC(=O)O[C@@]12CO[C@@H]1CC[C@@]1(C)[C@H]3OC(C)(C)O[C@@H]3C3=C(C)[C@@H](OC(=O)[C@H](O)[C@@H](NC(=O)OC(C)(C)C)c4ccccn4)C[C@@](O)([C@@H](OC(=O)c4ccccc4)[C@@H]12)C3(C)C` to `CC(=O)O[C@@]12CO[C@@H]1C[C@H](O)[C@@]1(C)C(=O)[C@H](O)C3=C(C)[C@@H](OC(=O)[C@H](O)[C@@H](NC(=O)OC(C)(C)C)c4ccccc4)C[C@@](O)([C@@H](OC(=O)c4ccccc4)[C@H]21)C3(C)C` [DOCETAXEL ANHYDROUS], the GI50 rises from 0.15 ng/mL (≈ 0.18 nM) to 42.2 ng/mL (≈ 52.2 nM) (280-fold).

Work on `CC(=O)O[C@H]1C(=O)[C@@]2(C)[C@H]([C@H](OC(=O)c3ccccc3)[C@]3(O)C[C@H](OC(=O)[C@H](O)[C@@H](NC(=O)c4ccccc4)c4ccccc4)C(C)=C1C3(C)C)[C@]1(OC(C)=O)CO[C@@H]1C[C@@H]2O` [PACLITAXEL] yielded a GI50 of 539 ng/mL (≈ 631 nM).

Tested on: not listed separately
Experiment: Oral bioavailability in rat
Format: ADME, organism-based
Conditions: in vivo

`FC1CCN(CCc2ccc(C3CCC4(CC3)OOC3(OO4)C4CC5CC(C4)CC3C5)cc2)CC1` (stereo not drawn) showed a bioavailability of 62%.

Tested on: not listed separately
Experiment: Oral bioavailability in dog
Format: ADME, organism-based, Canis lupus familiaris
Conditions: in vivo

With `FC1CCN(CCc2ccc(C3CCC4(CC3)OOC3(OO4)C4CC5CC(C4)CC3C5)cc2)CC1` (stereo not drawn) the bioavailability was 40%.
